Assay [1] has as its system NLRP3 inflammasome in J774A.1 macrophages. Kind of assay: NLRP3 inflammasome activation (IL-1β ELISA, caspase-1 Western blot). The format is cell-based. On the procedure: (§1) The expression levels of IL-1β, IL-6 and TNF-α in the conditional medium, sera and lavage fluids were measured by ELISA as described in detail previously.
(§2) The protein expression levels of iNOS, COX-2, ERK1/2, JNK1/2, p38, IκB-α, PKC, caspase-1 and the phosphorylation levels of ERK1/2, JNK1/2, p38, PKC-α, PKC-δ, IκB-α were determined by Western blotting as described in detail previously.
Fig 4 Effects of GW-A2 on NLRP3 inflammasome activation. (A and B) J774A.1 macrophages were incubated for 30 min with or without 2 μM of GW-A2, for 5.5 h with or without 0.1 μg/ml of E. coli LPS, and then for 30 min with or without 5 mM of ATP (A) or 10 μM of nigericin (B). The levels of IL-1β in the culture medium and activated caspase-1 (p10) in the cells were measured by ELISA and Western blotting, respectively. (C—F) J774A.1 macrophages were incubated for 5.5 h with 0.1 μg/ml of E. coli LPS, for 30 min with or without 2 μM of GW-A2, and then for 30 min with or without 5 mM of ATP (C and E), 10 μM of nigericin (D) or 100 μg/ml of MSU (F). The levels of IL-1β and TNF-α in the culture medium and activated caspase-1 (p10) in the cells were measured by ELISA and Western blotting, respectively. The data are expressed as the mean ± SD of three independent experiments. The Western blotting results shown are a representative experiment of three independent experiments. *, ** and *** indicate significant differences, representing p < 0.05, p < 0.01 and p < 0.001, respectively compared to stimulation alone.
(In general: An ELISA detects its analyte on a solid surface through an enzyme-linked reagent.)

The subject of assay [2] is E. coli-LPS-activated RAW 264.7 macrophages. Kind of assay: MAPK, PKC-α/δ and IκB-α phosphorylation (Western blot). The format is cell-based, mouse. The note with it: 2 μM GW-A2 30 min, then E. coli LPS 0.1 μg/ml 0–60 min. The protocol:
as §2
Fig 2 Effects of GW-A2 on LPS-mediated signaling pathways. (A-C) RAW 264.7 macrophages were incubated for 30 min with or without 2 μM of GW-A2, followed by 0–60 min with or without 0.1 μg/ml of E. coli LPS. The phosphorylation levels of (A) ERK1/2, JNK1/2 and p38, (B) PKC-α and PKC-δ, and (C) I-κB-α were assayed by western blotting. (D) RAW-Blue^TM cells were incubated for 30 min with or without GW-A2, followed by 24 h with or without 0.1 μg/ml of E. coli LPS. The activation levels of NF-κB were measured by an NF-κB reporter assay. The data are expressed as the mean ± SD of three independent experiments. The western blotting results shown are a representative experiment of three independent experiments. * and ** indicate significant differences, representing p < 0.05 and p < 0.01, respectively compared to LPS alone.
On the technique in general: In western blotting, separated proteins are transferred to a membrane and probed.

Assay [3] has the same test system. Kind of assay: TNF-α and IL-6 secretion ELISA, RAW 264.7. As to conditions: RAW 264.7, E. coli LPS 0.1 μg/ml 24 h, Fig 1E. The format is cell-based, mouse. The protocol:
as §1
Fig 1 Effects of GW-A2 on the expression levels of inflammatory mediators. (A) RAW 264.7 macrophages were incubated for 30 min with or without GW-A2 or scrambled GW-A2, followed by incubation with or without 0.1 μg/ml of E. coli LPS or Salmonella LPS for 24 h. The levels of NO in the culture medium were measured by the Griess reaction. (B) RAW 264.7 macrophages were incubated for 30 min with or without GW-A2, followed by incubation with or without peptidoglycan (20 μg/ml), Pam3CSK4 (0.2 μg/ml) or capsular polysaccharide (3 μg/ml) for 24 h. The levels of NO in the culture medium were measured by the Griess reaction. […] The levels of iNOS and COX-2 were assessed by Western blotting and the histograms represent the expression levels compared to the LPS alone group obtained in three different experiments. […] The mRNA levels of iNOS and COX-2 were assessed by quantitative real-time PCR. […] The cell proliferation was measured by AlamarBlue® assay. The data are expressed as the mean ± SD of three independent experiments. *, ** and *** indicate significant differences, representing p < 0.05, p < 0.01 and p < 0.001, respectively compared to stimulation alone. # indicates significant differences, representing p < 0.05 compared to 2 μM of GW-A2 group.

For assay [4], the system named is LPS-induced NO generation in RAW264.7 cells. Nature of the assay: NO inhibitory assay (Griess reaction), LPS-activated RAW 264.7. Type of assay: cell-based, mouse. On the procedure: RAW 264.7 cells (2 × 10^5 in 0.5 ml of medium) were seeded in 24-well plates and then incubated with or without LPS (0.1 μg/ml) in the absence or presence of AMP for 24 h. The effects of AMP on NO production were measured indirectly by analyzing nitrite levels using the Griess reaction as described in detail previously.
In general terms: The Griess reaction detects nitrite, a stable product of nitric oxide.

We go through 1 sequence from PMC5531531, “A synthetic cationic antimicrobial peptide inhibits inflammatory response and the NLRP3 inflammasome by neutralizing LPS and ATP” (PLoS ONE, 2017).

No end group written: not given here.

As for GAKYAKIIYNYLKKIANALW [GW-A2], the “IL-1β secretion and caspase-1 activation induced by LPS+nigericin” value in assay [1] (2 μM GW-A2 30 min before LPS 5.5 h, then 10 μM nigericin 30 min, Fig 4B) was “significantly inhibited”. Also, the “IL-1β secretion and caspase-1 activation induced by LPS+ATP” value in assay [1] (2 μM GW-A2 30 min before LPS 5.5 h, then 5 mM ATP 30 min, Fig 4A) is “significantly inhibited”. Further, the “Nigericin-induced IL-1β secretion and caspase-1 activation in LPS-primed macrophages” value in assay [1] (LPS 5.5 h, then 2 μM GW-A2 30 min, then 10 μM nigericin, Fig 4D) is recorded as “no significant effect”. In addition, in assay [1] (LPS 5.5 h, then 2 μM GW-A2 30 min, then 100 μg/ml MSU, Fig 4F), the “MSU-induced IL-1β secretion in LPS-primed macrophages” value is recorded as “not able to inhibit”. In assay [1] (LPS 5.5 h, then 2 μM GW-A2 30 min, then 5 mM ATP, Fig 4C), the “ATP-induced IL-1β secretion and caspase-1 activation in LPS-primed macrophages” value was “inhibited”. Also, in assay [1] (LPS 5.5 h, then 2 μM GW-A2 30 min, then 5 mM ATP, Fig 4E), the “TNF-α secretion in LPS-primed macrophages” value was “did not decrease”. In addition, the “Phosphorylation levels of ERK1/2, JNK1/2 and p38” value in assay [2] (Fig 2A) was “reduced”. Moreover, the “Phosphorylation levels of PKC-α and PKC-δ” value in assay [2] (Fig 2B) was “reduced”. In addition, the “Phosphorylation levels of IκB-α” value in assay [2] (Fig 2C) is listed as “inhibited”. For the same sequence, in assay [3], the IL-6 secretion level entry was “reduced” and the TNF-α secretion level result is reported as “reduced”. Further, in assay [4] (2 μM GW-A2, Fig 3B), the “NO generation, GW-A2 added 0–8 h post LPS stimulation (therapeutic)” value is “significantly inhibited” and the “NO generation, GW-A2 added 16 h after LPS stimulation” value is listed as “no effect”. The “NO generation induced by E. coli-LPS” value in assay [4] (RAW 264.7, 30 min peptide then 0.1 μg/ml E. coli LPS 24 h, Griess, Fig 1A) was “inhibited by GW-A2 in a dose-dependent manner”. For the same sequence, the “NO generation induced by Salmonella-LPS” value in assay [4] (RAW 264.7, 30 min peptide then 0.1 μg/ml Salmonella LPS 24 h, Griess, Fig 1A) is given as “inhibited by GW-A2 in a dose-dependent manner”. Further, the “LPS-induced NO generation, GW-A2 added with LPS or 24 h before LPS (prophylactic)” value in assay [4] (pre-incubation 0–24 h, then LPS 24 h, Fig 3A) is “significantly reduce”. Moreover, the “LPS-induced NO generation, GW-A2 washed off before LPS stimulation” value in assay [4] (pre-incubation 1, 3, 6, 12 or 24 h, supernatant replaced, LPS 24 h, Fig 3C) was “not able to inhibit”.
